The source of these data is US20260337208A1, “HETEROCYCLIC DERIVATIVES AS JANUS KINASE INHIBITORS” (CHIESI FARMACEUTICI S.P.A., priority 2022, published 2026).

One assay has as its target TYK2 (Homo sapiens, UniProt P29597). The assay can be described thus: Biochemical potency on Tyk2, TR-FRET (LANCE Ultra kinase assay). Particulars: ATP corresponding to Km; cell-free; read-out: TYK2 inhibitory activity (pIC50) (converted). Put shortly: (§1)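 ULight-JAK-1 (Tyr1023) peptide phosphorylation at Km ATP, 1.5 h r.t.; substrate solution held peptide 30/50/20/10 nM and ATP 20/0.7/0.2/12 μM, enzyme solution 0.15/0.083/0.025/0.144 ng/μL (JAK1/JAK2/JAK3/TYK2). EDTA stop, Eu-PT66 antibody TR-FRET read at 665 nm; 11-point 5-fold dilutions from 20 μM; IC50 by variable-slope fit.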

A further assay addresses T1, JAK3 (Homo sapiens, UniProt P52333).
T1 sequence (P52333 1-1124): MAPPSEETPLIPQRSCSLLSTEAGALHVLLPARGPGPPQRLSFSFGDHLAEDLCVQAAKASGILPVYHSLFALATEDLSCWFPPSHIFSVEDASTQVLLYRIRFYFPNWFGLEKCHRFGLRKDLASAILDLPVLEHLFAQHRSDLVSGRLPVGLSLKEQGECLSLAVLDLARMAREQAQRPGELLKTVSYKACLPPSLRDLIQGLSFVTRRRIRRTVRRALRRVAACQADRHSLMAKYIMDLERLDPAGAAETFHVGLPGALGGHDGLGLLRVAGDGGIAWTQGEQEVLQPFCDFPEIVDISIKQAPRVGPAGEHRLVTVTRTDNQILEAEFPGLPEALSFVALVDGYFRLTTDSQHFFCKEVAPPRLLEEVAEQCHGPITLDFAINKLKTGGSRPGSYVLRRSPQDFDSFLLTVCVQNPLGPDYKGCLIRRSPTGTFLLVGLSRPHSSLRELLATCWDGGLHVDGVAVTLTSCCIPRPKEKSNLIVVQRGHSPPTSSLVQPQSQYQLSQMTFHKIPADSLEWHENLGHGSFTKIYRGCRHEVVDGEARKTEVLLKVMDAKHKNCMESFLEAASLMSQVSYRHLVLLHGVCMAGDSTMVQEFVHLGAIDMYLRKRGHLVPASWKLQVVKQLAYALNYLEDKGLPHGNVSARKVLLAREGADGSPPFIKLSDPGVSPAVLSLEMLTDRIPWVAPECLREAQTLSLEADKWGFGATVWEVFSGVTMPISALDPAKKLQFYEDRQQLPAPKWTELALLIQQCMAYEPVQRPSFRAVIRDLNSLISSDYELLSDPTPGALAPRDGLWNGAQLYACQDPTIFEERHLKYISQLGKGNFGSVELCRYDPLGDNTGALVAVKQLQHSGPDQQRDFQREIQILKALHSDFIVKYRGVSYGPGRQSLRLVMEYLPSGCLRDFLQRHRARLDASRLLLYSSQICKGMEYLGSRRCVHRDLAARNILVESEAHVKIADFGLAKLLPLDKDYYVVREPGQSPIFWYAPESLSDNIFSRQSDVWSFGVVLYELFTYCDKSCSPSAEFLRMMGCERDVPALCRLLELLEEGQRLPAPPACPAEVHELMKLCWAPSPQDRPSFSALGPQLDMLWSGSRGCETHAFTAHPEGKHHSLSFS
Briefly: Biochemical potency on JAK3, TR-FRET (LANCE Ultra kinase assay). Particulars: ATP corresponding to Km; cell-free; read-out: JAK3 inhibitory activity (pIC50) (converted). Put shortly: as §1

The target in a further assay is JAK2 (Homo sapiens, UniProt O60674). Briefly: Biochemical potency on JAK2, TR-FRET (LANCE Ultra kinase assay). Particulars: ATP corresponding to Km; cell-free; read-out: JAK2 inhibitory activity (pIC50) (converted). Summed up: as §1
Assay [1] deals with pSTAT6 in BEAS-2B human cell line. Briefly: Inhibition of IL-13 induced pSTAT6 in BEAS. Type of assay: cell-based. The settings on record: for IC50: Homo sapiens, BEAS-2B, 0.5 h, IL-13 trigger, 30 min, parent compound; for Fold difference parent vs predicted acid metabolite: ratio=IC50 predicted acid metabolite/IC50 ester. Summed up:
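BEAS-2B cells grown 48 h, pre-treated 30 min with compound, then stimulated 30 min with IL-13. Lysate pSTAT6 (Tyr641) measured by sandwich ELISA. Eleven 5-fold dilutions from 10 μM, in duplicate, fitted to IC50.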

In the next assay the target is JAK1 (Homo sapiens, UniProt P23458). The assay can be described thus: Biochemical potency on JAK1, TR-FRET (LANCE Ultra kinase assay). The settings on record: ATP corresponding to Km; cell-free; read-out: JAK1 inhibitory activity (pIC50) (converted). Summed up: as §1
Sequence of JAK1 (P23458 whole entry): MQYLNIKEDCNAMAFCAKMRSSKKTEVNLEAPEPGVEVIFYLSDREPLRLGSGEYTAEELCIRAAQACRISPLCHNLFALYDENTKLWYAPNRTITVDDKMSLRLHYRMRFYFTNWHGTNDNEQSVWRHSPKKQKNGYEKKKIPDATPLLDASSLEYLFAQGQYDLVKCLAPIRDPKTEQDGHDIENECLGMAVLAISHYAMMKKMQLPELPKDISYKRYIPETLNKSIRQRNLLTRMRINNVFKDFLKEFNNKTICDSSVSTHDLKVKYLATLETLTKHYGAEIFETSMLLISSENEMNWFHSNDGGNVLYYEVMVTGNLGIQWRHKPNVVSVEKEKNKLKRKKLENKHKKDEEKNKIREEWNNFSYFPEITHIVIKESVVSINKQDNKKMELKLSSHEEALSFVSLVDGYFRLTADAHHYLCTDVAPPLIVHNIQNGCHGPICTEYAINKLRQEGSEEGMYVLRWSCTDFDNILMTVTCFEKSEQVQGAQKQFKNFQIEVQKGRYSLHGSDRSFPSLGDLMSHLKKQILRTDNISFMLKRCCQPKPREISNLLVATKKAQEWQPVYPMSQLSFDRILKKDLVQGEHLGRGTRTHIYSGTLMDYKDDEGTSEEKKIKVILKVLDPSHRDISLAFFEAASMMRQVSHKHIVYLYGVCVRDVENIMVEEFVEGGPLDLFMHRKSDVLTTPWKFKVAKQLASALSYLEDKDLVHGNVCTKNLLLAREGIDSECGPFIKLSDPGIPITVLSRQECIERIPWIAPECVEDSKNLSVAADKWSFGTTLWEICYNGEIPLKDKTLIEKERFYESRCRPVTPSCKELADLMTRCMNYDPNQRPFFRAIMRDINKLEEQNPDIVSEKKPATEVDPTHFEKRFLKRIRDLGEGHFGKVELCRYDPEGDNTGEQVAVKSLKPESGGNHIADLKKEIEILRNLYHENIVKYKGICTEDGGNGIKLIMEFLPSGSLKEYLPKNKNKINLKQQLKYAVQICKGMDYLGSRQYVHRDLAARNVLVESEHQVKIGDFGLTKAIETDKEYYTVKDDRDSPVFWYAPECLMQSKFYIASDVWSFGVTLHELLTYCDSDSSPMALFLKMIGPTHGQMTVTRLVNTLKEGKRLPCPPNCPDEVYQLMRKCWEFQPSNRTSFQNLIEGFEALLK

Sequence of JAK2 (O60674 whole entry): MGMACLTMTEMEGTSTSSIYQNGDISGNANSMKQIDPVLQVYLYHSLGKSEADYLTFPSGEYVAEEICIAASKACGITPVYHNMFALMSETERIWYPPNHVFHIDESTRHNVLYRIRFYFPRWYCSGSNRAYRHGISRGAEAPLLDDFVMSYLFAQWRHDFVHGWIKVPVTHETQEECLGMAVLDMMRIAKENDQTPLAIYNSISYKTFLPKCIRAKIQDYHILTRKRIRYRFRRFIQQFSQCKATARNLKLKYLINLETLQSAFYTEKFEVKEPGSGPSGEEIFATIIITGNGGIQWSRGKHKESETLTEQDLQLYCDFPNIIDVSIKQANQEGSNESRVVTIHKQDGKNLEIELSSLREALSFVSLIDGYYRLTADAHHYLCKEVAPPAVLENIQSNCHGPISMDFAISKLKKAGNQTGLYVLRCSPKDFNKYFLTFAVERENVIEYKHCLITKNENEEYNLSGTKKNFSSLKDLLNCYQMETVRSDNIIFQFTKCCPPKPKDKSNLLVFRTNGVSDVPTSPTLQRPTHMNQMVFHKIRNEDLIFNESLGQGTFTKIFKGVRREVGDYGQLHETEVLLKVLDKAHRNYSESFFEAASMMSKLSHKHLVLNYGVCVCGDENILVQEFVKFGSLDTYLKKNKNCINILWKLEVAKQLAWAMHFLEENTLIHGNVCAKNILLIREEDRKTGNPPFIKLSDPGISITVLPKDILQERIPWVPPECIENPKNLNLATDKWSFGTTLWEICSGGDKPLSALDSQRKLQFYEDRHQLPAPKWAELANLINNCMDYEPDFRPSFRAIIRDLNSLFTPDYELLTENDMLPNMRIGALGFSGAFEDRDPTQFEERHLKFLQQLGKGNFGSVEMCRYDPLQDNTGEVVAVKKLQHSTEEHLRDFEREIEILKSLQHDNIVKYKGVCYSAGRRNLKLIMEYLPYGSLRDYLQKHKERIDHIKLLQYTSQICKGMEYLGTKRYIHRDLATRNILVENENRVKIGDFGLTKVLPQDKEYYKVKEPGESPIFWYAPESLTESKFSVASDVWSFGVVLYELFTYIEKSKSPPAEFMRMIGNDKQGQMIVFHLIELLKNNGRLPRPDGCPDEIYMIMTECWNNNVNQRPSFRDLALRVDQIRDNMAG
Sequence of TYK2 (P29597 whole entry): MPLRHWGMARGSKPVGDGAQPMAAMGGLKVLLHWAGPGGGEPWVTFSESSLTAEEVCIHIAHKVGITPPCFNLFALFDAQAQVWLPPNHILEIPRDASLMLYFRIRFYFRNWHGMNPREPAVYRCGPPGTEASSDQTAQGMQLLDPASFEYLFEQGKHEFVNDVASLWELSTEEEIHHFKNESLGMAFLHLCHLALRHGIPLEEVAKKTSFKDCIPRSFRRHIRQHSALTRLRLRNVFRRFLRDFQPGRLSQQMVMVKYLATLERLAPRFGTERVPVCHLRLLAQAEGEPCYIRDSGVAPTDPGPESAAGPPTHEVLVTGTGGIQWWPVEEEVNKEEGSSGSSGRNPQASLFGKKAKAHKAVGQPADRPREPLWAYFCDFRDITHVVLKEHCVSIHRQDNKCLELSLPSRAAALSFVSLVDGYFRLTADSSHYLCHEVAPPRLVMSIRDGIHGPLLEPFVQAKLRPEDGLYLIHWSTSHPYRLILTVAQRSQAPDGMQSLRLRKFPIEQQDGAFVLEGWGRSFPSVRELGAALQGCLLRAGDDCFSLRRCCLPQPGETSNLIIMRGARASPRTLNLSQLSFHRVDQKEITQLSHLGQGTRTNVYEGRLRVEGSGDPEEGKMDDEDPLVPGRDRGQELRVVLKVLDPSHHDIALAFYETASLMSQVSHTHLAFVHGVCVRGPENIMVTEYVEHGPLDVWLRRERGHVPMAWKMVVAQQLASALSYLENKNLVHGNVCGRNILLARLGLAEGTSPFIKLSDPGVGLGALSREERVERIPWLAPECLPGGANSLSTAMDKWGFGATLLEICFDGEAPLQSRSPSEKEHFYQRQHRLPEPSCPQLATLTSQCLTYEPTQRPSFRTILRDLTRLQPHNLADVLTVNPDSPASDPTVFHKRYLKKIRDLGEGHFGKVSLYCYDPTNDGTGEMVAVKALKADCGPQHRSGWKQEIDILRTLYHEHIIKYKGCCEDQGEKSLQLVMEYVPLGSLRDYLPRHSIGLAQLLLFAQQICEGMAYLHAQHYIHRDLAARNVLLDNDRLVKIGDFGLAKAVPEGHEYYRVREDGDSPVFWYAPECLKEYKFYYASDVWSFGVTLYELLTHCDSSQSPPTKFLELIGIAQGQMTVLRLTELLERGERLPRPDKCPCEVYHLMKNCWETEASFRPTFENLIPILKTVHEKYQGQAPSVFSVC

In the case of `CCOC(=O)C1CCN(CCNC(=O)c2nn(-c3cc4c(cc3OC)NCCO4)c3cc(Nc4ncc[nH]c4=O)ncc23)CC1` [Example 58, ethyl 1-(2-(1-(6-methoxy-3,4-dihydro-2H-benzo[b][1,4]oxazin-7-yl)-6-((3-oxo-3,4-dihydropyrazin-2-yl)amino)-1H-pyrazolo[4,3-c]pyridine-3-carboxamido)ethyl)piperidine-4-carboxylate], the IC50 is 5.01 to 50.1 nM on TYK2; at most 5.01 nM on JAK3; at most 5.01 nM on JAK2; 5.01 to 50.1 nM in assay [1]; at most 5.01 nM at JAK1. For the same compound, the “Fold difference parent vs predicted acid metabolite” value in assay [1] was “kkkk (ratio≥200)”.

As to `CCOC(=O)[C@@H]1CCN(CCNC(=O)c2nn(-c3cc4c(cc3OC)NCCO4)c3cc(-c4cnn5cccnc45)ncc23)C1` [Example 43, ethyl (R)-1-(2-(1-(6-methoxy-3,4-dihydro-2H-benzo[b][1,4]oxazin-7-yl)-6-(pyrazolo[1,5-a]pyrimidin-3-yl)-1H-pyrazolo[4,3-c]pyridine-3-carboxamido)ethyl)pyrrolidine-3-carboxylate], the IC50 on TYK2 was 5.01 to 50.1 nM; on JAK3, at most 5.01 nM; on JAK2 it was at most 5.01 nM; in assay [1], 5.01 to 50.1 nM; at JAK1, at most 5.01 nM. Further, the “Fold difference parent vs predicted acid metabolite” value in assay [1] was “kkk (200>ratio≥100)”.

In the case of `COc1cc2c(cc1-n1nc(C(=O)NCCN3CCC(C(=O)OC4CC(C#N)C4)CC3)c3cnc(-c4cnn5cccnc45)cc31)OCCN2` (stereo not drawn) [Example 47, 3-cyanocyclobutyl 1-(2-(1-(6-methoxy-3,4-dihydro-2H-benzo[b][1,4]oxazin-7-yl)-6-(pyrazolo[1,5-a]pyrimidin-3-yl)-1H-pyrazolo[4,3-c]pyridine-3-carboxamido)ethyl)piperidine-4-carboxylate], the IC50 is 5.01 to 50.1 nM at TYK2; at most 5.01 nM at JAK3; at most 5.01 nM on JAK2; at most 5.01 nM in assay [1]; at most 5.01 nM at JAK1. For the same compound, the “Fold difference parent vs predicted acid metabolite” value in assay [1] is listed as “kkkk (ratio≥200)”.

On to `CCCOC(=O)CN(C)CCNC(=O)c1nn(-c2cc3c(cc2OC)NCCO3)c2cc(-c3cnn4cccnc34)ncc12` [Example 6, propyl N-(2-(1-(6-methoxy-3,4-dihydro-2H-benzo[b][1,4]oxazin-7-yl)-6-(pyrazolo[1,5-a]pyrimidin-3-yl)-1H-pyrazolo[4,3-c]pyridine-3-carboxamido)ethyl)-N-methylglycinate], for which the IC50 on TYK2 was over 50.1 nM; at JAK3 it was at most 5.01 nM; on JAK2, at most 5.01 nM; in assay [1], 5.01 to 50.1 nM; at JAK1, 5.01 to 50.1 nM.

For `CCOC(=O)C1CCN(CCNC(=O)c2nn(-c3cc4c(cc3OC)NCCC4)c3cc(-c4cnn5cccnc45)ncc23)CC1` [Example 38, ethyl 1-(2-(1-(7-methoxy-1,2,3,4-tetrahydroquinolin-6-yl)-6-(pyrazolo[1,5-a]pyrimidin-3-yl)-1H-pyrazolo[4,3-c]pyridine-3-carboxamido)ethyl)piperidine-4-carboxylate], the IC50 on TYK2 was 5.01 to 50.1 nM; at JAK3, at most 5.01 nM; at JAK2, 5.01 to 50.1 nM; in assay [1], at most 5.01 nM; at JAK1 it was 5.01 to 50.1 nM.

`COc1cc2c(cc1-n1nc(C(=O)OCCCN(C)C)c3cnc(-c4cnn5cccnc45)cc31)SCCN2` [Example 7, 3-(dimethylamino)propyl 1-(6-methoxy-3,4-dihydro-2H-benzo[b][1,4]thiazin-7-yl)-6-(pyrazolo[1,5-a]pyrimidin-3-yl)-1H-pyrazolo[4,3-c]pyridine-3-carboxylate]: the IC50 (on TYK2; at JAK3; at JAK2; in assay [1]; on JAK1) was at most 5.01 nM throughout.

For `COc1cc2c(cc1-n1nc(C(=O)NCCN3CCC(C(=O)O[C@@H]4CN(C)C[C@H]4F)CC3)c3cnc(-c4cnn5cccnc45)cc31)OCCN2` (relative stereo) [Example 51, (3R*,4R*)-4-fluoro-1-methylpyrrolidin-3-yl 1-(2-(1-(6-methoxy-3,4-dihydro-2H-benzo[b][1,4]oxazin-7-yl)-6-(pyrazolo[1,5-a]pyrimidin-3-yl)-1H-pyrazolo[4,3-c]pyridine-3-carboxamido)ethyl)piperidine-4-carboxylate], the IC50 on TYK2 is 5.01 to 50.1 nM; at JAK3 it was at most 5.01 nM; on JAK2, at most 5.01 nM; in assay [1], 5.01 to 50.1 nM; at JAK1, at most 5.01 nM. In addition, the “Fold difference parent vs predicted acid metabolite” value in assay [1] is recorded as “kkk (200>ratio≥100)”.

With `CCOC(=O)CC1CCN(CCNC(=O)c2nn(-c3cc4c(cc3OC)NCCO4)c3cc(-c4cnn5cccnc45)ncc23)CC1` [Example 35, ethyl 2-(1-(2-(1-(6-methoxy-3,4-dihydro-2H-benzo[b][1,4]oxazin-7-yl)-6-(pyrazolo[1,5-a]pyrimidin-3-yl)-1H-pyrazolo[4,3-c]pyridine-3-carboxamido)ethyl)piperidin-4-yl)acetate], the IC50 is 5.01 to 50.1 nM on TYK2; at most 5.01 nM on JAK3; at most 5.01 nM at JAK2; at most 5.01 nM in assay [1]; at most 5.01 nM on JAK1. Moreover, the “Fold difference parent vs predicted acid metabolite” value in assay [1] is reported as “kkkk (ratio≥200)”.

For the compound `COc1cc2c(cc1-n1nc(C(=O)NCCN3CCC(C(=O)OCCCC#N)CC3)c3cnc(-c4cnn5cccnc45)cc31)OCCN2` [Example 54, 3-cyanopropyl 1-(2-(1-(6-methoxy-3,4-dihydro-2H-benzo[b][1,4]oxazin-7-yl)-6-(pyrazolo[1,5-a]pyrimidin-3-yl)-1H-pyrazolo[4,3-c]pyridine-3-carboxamido)ethyl)piperidine-4-carboxylate], the IC50 was 5.01 to 50.1 nM on TYK2; at most 5.01 nM on JAK3; at most 5.01 nM at JAK2; at most 5.01 nM in assay [1]; at most 5.01 nM on JAK1. The “Fold difference parent vs predicted acid metabolite” value in assay [1] is recorded as “kkkk (ratio≥200)”.

Turning to `CCOC(=O)C1CCN(CCNC(=O)c2nn(-c3cc4c(cc3OC)NCCO4)c3cc(-c4cnn5cccnc45)ncc23)CC1` [Example 9, ethyl 1-(2-(1-(6-methoxy-3,4-dihydro-2H-benzo[b][1,4]oxazin-7-yl)-6-(pyrazolo[1,5-a]pyrimidin-3-yl)-1H-pyrazolo[4,3-c]pyridine-3-carboxamido)ethyl)piperidine-4-carboxylate], the IC50 on TYK2 is 5.01 to 50.1 nM; at JAK3, at most 5.01 nM; at JAK2, at most 5.01 nM; in assay [1] it was at most 5.01 nM; at JAK1, at most 5.01 nM. In assay [1], the “Fold difference parent vs predicted acid metabolite” value is recorded as “kkkk (ratio≥200)”.

Consider `COc1cc2c(cc1-n1nc(C(=O)NCCN3CCC(C(=O)OCC4(C#N)CC4)CC3)c3cnc(-c4cnn5cccnc45)cc31)OCCN2` [Example 53, (1-cyanocyclopropyl)methyl 1-(2-(1-(6-methoxy-3,4-dihydro-2H-benzo[b][1,4]oxazin-7-yl)-6-(pyrazolo[1,5-a]pyrimidin-3-yl)-1H-pyrazolo[4,3-c]pyridine-3-carboxamido)ethyl)piperidine-4-carboxylate], for which the IC50 at TYK2 is 5.01 to 50.1 nM; at JAK3, at most 5.01 nM; on JAK2, at most 5.01 nM; in assay [1], at most 5.01 nM; at JAK1, at most 5.01 nM. For the same compound, in assay [1], the “Fold difference parent vs predicted acid metabolite” value is on record as “kkkk (ratio≥200)”.
